Consider 3 molecules from patent US10870647B2, “Imidazopyridine derivative, method for preparing same, and pharmaceutical composition containing same as active ingredient for preventing or treating cancer” (DAEGU-GYEONGBUK MEDICAL INNOVATION FOUNDATION, priority 2016, dated 2020).

Test [1] deals with T1, scanMAX Kinase assay panel (Homo sapiens, UniProt Q96L34).
T1 construct: purchased DiscoverX
T1 sequence (Q96L34 1-752): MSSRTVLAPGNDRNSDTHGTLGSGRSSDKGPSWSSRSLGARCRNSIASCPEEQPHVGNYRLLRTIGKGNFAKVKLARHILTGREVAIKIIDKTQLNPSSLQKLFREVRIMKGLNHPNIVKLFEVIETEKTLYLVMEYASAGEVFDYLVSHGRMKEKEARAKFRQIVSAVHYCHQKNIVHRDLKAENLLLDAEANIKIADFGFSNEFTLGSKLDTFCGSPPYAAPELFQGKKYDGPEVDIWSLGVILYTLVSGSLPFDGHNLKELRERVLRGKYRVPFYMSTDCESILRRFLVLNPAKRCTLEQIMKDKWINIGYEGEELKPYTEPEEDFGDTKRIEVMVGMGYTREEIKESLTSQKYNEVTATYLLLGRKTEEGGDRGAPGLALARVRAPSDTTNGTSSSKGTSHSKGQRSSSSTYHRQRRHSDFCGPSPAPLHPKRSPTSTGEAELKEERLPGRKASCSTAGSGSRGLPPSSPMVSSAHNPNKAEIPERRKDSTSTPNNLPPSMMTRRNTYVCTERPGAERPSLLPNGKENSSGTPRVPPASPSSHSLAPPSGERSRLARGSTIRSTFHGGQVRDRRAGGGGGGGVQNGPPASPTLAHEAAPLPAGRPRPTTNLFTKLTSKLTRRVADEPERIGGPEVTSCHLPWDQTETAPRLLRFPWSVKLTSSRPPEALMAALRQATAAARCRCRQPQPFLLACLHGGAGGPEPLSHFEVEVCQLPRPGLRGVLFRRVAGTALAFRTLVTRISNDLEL
In words: Kinase selectivity, scanMAX Kinase assay panel (DiscoverX), % control at 1 uM. The test is classed as binding. To be noted: MARK4; 1 uM; read-out: Percent Control (%). The method in brief: (§1)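 Binding across the scanMAX kinase panel was tested at 1 uM compound. % control = (compound − positive control)/(negative control − positive control) × 100; below 35 counted as active.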

Test [2] addresses T2, scanMAX Kinase assay panel (Homo sapiens, UniProt Q99683).
T2 construct: purchased DiscoverX
T2 sequence (Q99683 1-1374): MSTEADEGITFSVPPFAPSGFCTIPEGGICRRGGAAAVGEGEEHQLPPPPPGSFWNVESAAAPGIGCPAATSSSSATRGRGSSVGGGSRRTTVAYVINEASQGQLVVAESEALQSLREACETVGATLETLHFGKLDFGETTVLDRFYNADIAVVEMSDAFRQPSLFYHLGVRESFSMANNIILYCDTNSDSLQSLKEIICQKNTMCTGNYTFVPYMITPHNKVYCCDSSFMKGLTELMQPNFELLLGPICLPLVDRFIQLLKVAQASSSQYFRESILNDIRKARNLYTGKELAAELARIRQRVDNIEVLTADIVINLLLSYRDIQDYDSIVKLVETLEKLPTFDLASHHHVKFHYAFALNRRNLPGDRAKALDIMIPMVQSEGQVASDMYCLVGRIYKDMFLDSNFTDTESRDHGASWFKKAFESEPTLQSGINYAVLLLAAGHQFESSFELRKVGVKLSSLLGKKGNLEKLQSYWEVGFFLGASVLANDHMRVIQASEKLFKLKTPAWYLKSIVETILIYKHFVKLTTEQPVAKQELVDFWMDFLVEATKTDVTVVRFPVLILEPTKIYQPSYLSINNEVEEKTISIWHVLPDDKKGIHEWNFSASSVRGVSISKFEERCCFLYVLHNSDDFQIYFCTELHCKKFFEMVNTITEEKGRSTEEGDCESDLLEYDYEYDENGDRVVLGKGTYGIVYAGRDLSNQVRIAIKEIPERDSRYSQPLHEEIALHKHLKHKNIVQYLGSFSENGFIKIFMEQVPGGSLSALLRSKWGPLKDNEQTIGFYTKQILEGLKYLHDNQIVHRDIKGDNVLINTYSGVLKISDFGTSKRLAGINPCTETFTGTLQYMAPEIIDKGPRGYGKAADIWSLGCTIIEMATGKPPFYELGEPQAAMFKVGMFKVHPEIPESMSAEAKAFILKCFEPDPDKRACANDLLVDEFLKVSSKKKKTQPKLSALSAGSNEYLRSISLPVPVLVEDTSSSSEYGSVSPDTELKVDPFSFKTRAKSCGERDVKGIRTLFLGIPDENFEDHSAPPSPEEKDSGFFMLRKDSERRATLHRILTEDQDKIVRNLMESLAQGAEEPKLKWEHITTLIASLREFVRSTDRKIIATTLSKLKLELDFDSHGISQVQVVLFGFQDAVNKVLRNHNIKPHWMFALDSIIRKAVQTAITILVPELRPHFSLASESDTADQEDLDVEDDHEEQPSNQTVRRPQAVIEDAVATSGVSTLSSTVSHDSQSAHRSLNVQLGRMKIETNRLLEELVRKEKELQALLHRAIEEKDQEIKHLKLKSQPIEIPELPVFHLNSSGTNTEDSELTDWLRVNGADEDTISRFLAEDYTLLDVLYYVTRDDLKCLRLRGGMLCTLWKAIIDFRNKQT
The test is described as above. As to conditions: ASK1; 1 uM; read-out: Percent Control (%). The test is classed as binding. The method in brief: as §1

Take `Cc1ccc(C(=O)Nc2ccc(CN3CCN(C)CC3)c(C(F)(F)F)c2)cc1C#Cc1cnc2c(Nc3cnn(C)c3)cccn12` [Example 1, 4-methyl-3-((8-((1-methyl-1H-pyrazol-4-yl)amino)imidazo[1,2-a]pyridin-3-yl)ethynyl)-N-(4-((4-methylpiperazin-1-yl)methyl)-3-(trifluoromethyl)phenyl)benzamide]: the remaining binding at 1 µM in test [1] and in test [2] was 100% each time.

`Cc1cn(-c2cc(NC(=O)c3ccc(C)c(C#Cc4cnc5c(Nc6cnn(C)c6)cccn45)c3)cc(C(F)(F)F)c2)cn1` [Example 12, 4-methyl-N-(3-(4-methyl-1H-imidazol-1-yl)-5-(trifluoromethyl)phenyl)-3-((8-((1-methyl-1H-pyrazol-4-yl)amino)imidazo[1,2-a]pyridin-3-yl)ethynyl)benzamide]: the remaining binding at 1 µM in test [1] worked out at 86%; in test [2], 95%.

In the case of `Cc1ccc(NC(=O)C2(C(=O)Nc3ccc(F)cc3)CC2)cc1C#Cc1cnc2c(Nc3cnn(C(C)C)c3)cccn12` [Example 78], the values for the remaining binding at 1 µM in test [1] and in test [2] were 97% and 100%, respectively.
